According to patent US20220175761A1, “BI-LIGAND DRUG CONJUGATE AND USE THEREOF” (COHERENT BIOPHARMA (SUZHOU), LIMITED, priority 2019, published 2022):
Numbered stars: 1 amine (or outer) side, 2 acyl side, 3 side chain; on linkers, the order of the positions; unused ones are H or OH. Bridge positions count the residues as written; N and C are the ends. Square brackets hold non-standard residues; d marks the D form. Side chains are listed from the residue outwards. Peptide text beside a SMILES is read from it. I, II: the chains in the order shown. * marks the point of attachment. EuK = O=C(O)CC[C@H](NC(=O)N[C@@H](CCCCN*)C(=O)O)C(=O)O; Pteroyl = Nc1nc2ncc(CNc3ccc(C(=O)*)cc3)nc2c(=O)[nH]1; Dolaproine = CO[C@@H]([C@@H]1CCCN1)[C@@H](C)C(=O)O; Dil = CC[C@H](C)[C@H](NC)[C@@H](CC(=O)O)OC; X3 = O=C1CC([*:2])C(=O)N1CCCCCC(=O)[*:1]; γGlu = O=C(O)[C@H](CCC(=O)[*:2])N[*:1]; PABC = O=C(OCc1ccc(N[*:1])cc1)[*:2]; X1 = C[C@@H](N*)[C@@H](O)c1ccccc1; X2 = O=C(Cc1ccc(CN[*:1])cc1)[*:2]; Cit = NC(=O)NCCC[C@H](N)C(=O)O; NMeV = CN[C@H](C(=O)O)C(C)C; CO = O=C([*:1])[*:2]

Legend:
[1] = test system: A549, Hela, SCLC-21H, U-2 OS, T-47D and NCI-H460 tumor cell lines; experiment: Inhibition of tumor cell expansion, CCK8 (CB-18G); format: cell-based, human
Method: Cell lines: A549 human lung cancer cells, Hela human cervical cancer cells, SCLC-21H small cell lung cancer cells, U-2 OS human osteosarcoma cells, T-47D human breast cancer cells and NCI-H460 human lung cancer cells
The cells were prepared in advance, digested with trypsin, collected and counted; diluted with a complete cell culture medium, A549 cells, Hela cells, SCLC-21H cells and U-2 OS cells were plated at a density of 2×10^4 cells/ml, and T-47D cells and NCI-H460 cells were plated at a density of 3×10^4 cells/ml in 96-well plates; to each well of the 96-well plates, 100 μl of the diluted cell solution was added; and negative control and blank control wells were set on each plate. The 96-well plates added with the cells were placed in an incubator at 37° C., 5% CO2 for culturing overnight.
The samples were diluted with a culture medium to desired concentrations (see Table 15). […]
(§1) To each well, 15 μl (10% of the liquid volume in a well) of a color developing solution from CCK-8 was added; the plates were incubated at 37° C. for an appropriate time (try to keep the OD value in the range of 1.0-2.0); the covers of the 96-well plates were removed, and the plates were read at 450 nm on a microplate reader (Molecular Devices Spectra MAX Plus). […]

[2] = test system: KB, PC-9, SPC-A1, CALU-3 and DU145 cell lines (CDX tumor models); experiment: Pharmacodynamic study of CB-18G in CDX models; format: in vivo, BALB/c-nude mice; conditions: tail vein injection
Method: CB-18G lyophilized powder was weighed, dissolved with PBS and prepared into a sample mother solution, and the mother solution was diluted with a physiological saline for injection to a sample solution with a working concentration for later use.
Main cell lines: KB human oral epidermoid carcinoma cells, PC-9 human lung cancer cells, SPC-A1 human lung adenocarcinoma cells, CALU-3 human lung adenocarcinoma cells and DU145 human prostate cancer cells
Model construction: The cells were resuscitated, cultured, collected and counted, and the cell solution was subcutaneously injected into the right flank of BALB/c-nude mice. When the tumor grew and expanded to 80-160 mm^3, grouping and administration were performed, or rapidly expanded tumor masses were transferred and injected to mice for scale up.
(§2) Grouping: When the tumor grew to about 80-160 mm^3 on average, a grouping was performed, and a model control group and different doses of administration groups were set.
(§3) Administration: The mice were administrated via tail vein injection.
(§4) The weight of mice and the long diameter (a) and short diameter (b) of tumor mass were measured twice a week. The formula for the calculation of tumor volume (TV) is: TV=½×a×b^2.

[3] = test system: KB, PC-9 and DU145 cell lines (CDX tumor models); experiment: Pharmacodynamic study of CB-20B in CDX models; format: in vivo, BALB/c-nude mice; conditions: tail vein injection
Method: CB-20B lyophilized powder was weighed, dissolved with PBS and prepared into a sample mother solution, and the mother solution was diluted with a physiological saline for injection to a sample solution with a working concentration for later use.
Main cell lines: KB human oral epidermoid carcinoma cells, PC-9 human lung cancer cells and DU145 human prostate cancer cells.
Model construction: The cells were resuscitated, cultured, collected, counted, and subcutaneously injected into the right flank of BALB/c-nude mice. When the tumor grew and expanded to 80-160 mm^3, grouping and administration were performed, or rapidly expanded tumor masses were transferred and injected to mice for scale up.
as §2, §3, §4

[4] = test system: A549, HuH-7, KB, LNcap, DU145 and T-47D tumor cell lines; experiment: Inhibition of tumor cell expansion, CCK8 (CB-20B); format: cell-based, human
Method: Cell lines: A549 human lung cancer cells, HuH-7 human liver cancer cells, KB human oral epidermoid carcinoma cells, LNCaP human prostate cancer cells, DU145 human prostate cancer cells and T-47D human breast cancer cells
The cells were prepared in advance, digested with trypsin, collected and counted; diluted with a complete cell culture medium, A549 cells, HuH-7 cells, KB cells and DU145 cells were plated at a density of 2×10^4 cells/ml, T-47D cells were plated at a density of 1×10^5 cells/ml, and LNCaP cells were plated at a density of 6×10^4 cells/ml in 96-well plates; 100 μl of the diluted cell solution was added to each well; and negative control and blank control wells were set on each plate. The 96-well plates added with the cells were placed in an incubator at 37° C., 5% CO2 for culturing overnight.
The samples were diluted with a culture medium to desired concentrations (see Table 11). […]
as §1

Row | Structure (SMILES) | inhibitory effect on growth and expansion of tumor cell lines ([1]; 72 hours, CCK-8) | IC50 compared between cell lines ([1]; Hela versus NCI-H460) | inhibitory effect in CDX tumor models (tumor volume) [2] | inhibitory effect in CDX tumor models (tumor volume) [3] | inhibitory effect on growth and expansion of tumor cell lines ([4]; 72 hours, CCK-8) | IC50 compared between cell lines ([4]; T-47D, LNcap, KB, HuH-7 and DU145 versus A549)
1 | CCCC(=O)N[C@@H](Cc1ccccc1)C(=O)N[C@H]1CSSC[C@@H](C(=O)N[C@H](C(=O)N[C@@H](CCCCNC(=O)[C@H](CCC(=O)O)NC(=O)CCOCCOCCOCCOCCNC(=O)[C@H](CCC(=O)O)NC(=O)[C@H](CSC2CC(=O)N(CCCCCC(=O)N[C@H](C(=O)NC(CCCNC(N)=O)C(=O)Nc3ccc(COC(=O)N(C)[C@H](C(=O)N[C@H](C(=O)N(C)[C@@H]([C@@H](C)CC)[C@@H](CC(=O)N4CCC[C@H]4[C@H](OC)[C@@H](C)C(=O)N[C@H](C)[C@@H](O)c4ccccc4)OC)C(C)C)C(C)C)cc3)C(C)C)C2=O)NC(=O)CC[C@H](NC(=O)c2ccc(NCc3cnc4[nH]c(N)nc(=O)c4n3)cc2)C(=O)O)C(N)=O)[C@@H](C)O)NC(=O)[C@H]([C@@H](C)O)NC(=O)[C@H](CCCCN)NC(=O)[C@H](Cc2c[nH]c3ccccc23)NC(=O)[C@H](Cc2ccc(O)cc2)NC1=O (stereo partly drawn) [CB-18G] | has an inhibitory effect | significantly lower | good inhibitory effect |  |  | 
2 | CC[C@H](C)[C@@H]([C@@H](CC(=O)N1CCC[C@H]1[C@H](OC)[C@@H](C)C(=O)N[C@H](C)[C@@H](O)c1ccccc1)OC)N(C)C(=O)[C@@H](NC(=O)[C@H](C(C)C)N(C)C(=O)OCc1ccc(NC(=O)[C@H](CCCNC(N)=O)NC(=O)[C@@H](NC(=O)CCCCCN2C(=O)CC(SC[C@H](NC(=O)[C@H](CC(=O)O)NC(=O)[C@H](CC(=O)O)NC(=O)Cc3ccc(CNC(=O)NCCCC[C@H](NC(=O)N[C@@H](CCC(=O)O)C(=O)O)C(=O)O)cc3)C(=O)N[C@@H](CCCCNC(=O)CC[C@H](NC(=O)c3ccc(NCc4cnc5[nH]c(N)nc(=O)c5n4)cc3)C(=O)O)C(N)=O)C2=O)C(C)C)cc1)C(C)C (stereo partly drawn) [CB-20B] (I: V[Cit][PABC][NMeV]V[Dil][Dolaproine]-X1 / II: {EuK-CO}-[X2]DDCK([γGlu-Pteroyl])-NH2; linker I:N-II:4 via X3) |  |  |  | good inhibitory effect | has an inhibitory effect | significantly lower
